# Measured values published in ChEMBL document CHEMBL5518236, “Discovery of Clinical Candidate AZD5462, a Selective Oral Allosteric RXFP1 Agonist for Treatment of Heart Failure” (J Med Chem, 2024).
# Experiments:
# [1] = Octanol/water partition coefficient, logD of the compound at pH 7.4 by shake flask method; format: physicochemical
# [2] = Metabolic stability in human hepatocytes assessed as intrinsic clearance measured per 10^6 viable cells/ml at 1 uM measured upto 120 mins by LC-MS/MS analysis; format: ADME, cell-based, Hepatocyte; conditions: read-out: CLH
# [3] = Metabolic stability in human hepatocytes assessed as unbound intrinsic clearance measured per 10^6 viable cells/ml at 1 uM measured upto 120 mins by LC-MS/MS analysis; format: ADME, cell-based, Hepatocyte; conditions: 2 h
# [4] = Metabolic stability in human liver microsomes assessed as intrinsic clearance at 1 uM measured upto 30 mins by LC-MS/MS analysis; format: ADME, Microsome; conditions: read-out: CLH
# [5] = Metabolic stability in human liver microsomes assessed as unbound intrinsic clearance at 1 uM measured upto 30 mins by LC-MS/MS analysis; format: ADME, Microsome; conditions: 0.5 h
# Relaxin receptor 1 = biological target: T1, Relaxin receptor 1 (Homo sapiens, UniProt Q9HBX9)
# T1 sequence (Q9HBX9 whole entry): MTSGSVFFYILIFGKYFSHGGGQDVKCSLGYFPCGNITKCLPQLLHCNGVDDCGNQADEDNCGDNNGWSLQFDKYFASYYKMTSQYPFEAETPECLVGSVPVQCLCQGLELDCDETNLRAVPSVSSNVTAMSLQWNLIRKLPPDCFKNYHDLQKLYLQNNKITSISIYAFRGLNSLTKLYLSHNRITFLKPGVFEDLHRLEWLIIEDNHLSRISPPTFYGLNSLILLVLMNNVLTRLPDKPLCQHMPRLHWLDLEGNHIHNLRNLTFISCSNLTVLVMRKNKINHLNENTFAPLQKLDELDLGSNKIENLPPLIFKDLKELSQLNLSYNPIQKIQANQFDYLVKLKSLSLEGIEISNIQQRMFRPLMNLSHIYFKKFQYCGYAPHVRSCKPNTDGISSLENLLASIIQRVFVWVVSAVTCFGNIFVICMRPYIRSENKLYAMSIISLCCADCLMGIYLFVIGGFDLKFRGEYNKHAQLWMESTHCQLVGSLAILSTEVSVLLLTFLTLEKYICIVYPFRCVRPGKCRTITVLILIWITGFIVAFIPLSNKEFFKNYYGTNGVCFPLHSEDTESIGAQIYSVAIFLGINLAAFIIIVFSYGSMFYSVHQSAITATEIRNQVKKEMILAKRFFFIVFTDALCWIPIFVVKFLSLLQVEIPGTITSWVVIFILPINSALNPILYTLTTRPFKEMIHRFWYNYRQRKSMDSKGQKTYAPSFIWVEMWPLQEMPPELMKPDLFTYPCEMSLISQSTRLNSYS
# Description: Agonist activity at human RXFP1 expressed in CHO cells assessed as increase in cAMP level measured after 2 hrs by HTRF cAMP assay
logD [1],microsomal CLint at 1 µM [4] [µL/min/mg],CL free [5],EC50 (Relaxin receptor 1) [nM],SMILES,hepatocyte CLint at 1 µM [2] [µL/min/1e6 cells],CL free [3] [µL/min]
2.83,161,23 µL/min/mg,2000,Cc1cc(F)c(O[C@H]2CC[C@@](C)(C(=O)O)CC2)cc1C(=O)N[C@@H]1[C@H]2CC[C@H](C2)[C@@H]1C(=O)NCC1(C)CCC1,15,22
4.1,20,44 µL/min/mg,31.6,COc1cc(C(F)(F)F)c(O[C@H]2CC[C@@](C)(C(=O)O)CC2)cc1C(=O)N[C@@H]1[C@H]2CC[C@H](C2)[C@@H]1C(=O)NCC1(C)CCC1,3.9,93
3.3,36,62 µL/min/mg,6.31,CC1(CNC(=O)[C@H]2[C@@H]3CC[C@@H](C3)[C@H]2NC(=O)c2cc(O[C@H]3CC[C@@](C)(C(=O)O)CC3)c(F)cc2OCF)CCC1,8.4,15
3.3,81,147 µL/min/mg,,COc1c(Cl)cc(O[C@H]2CC[C@@](C)(C(=O)O)CC2)cc1C(=O)N[C@@H]1[C@H]2CC[C@H](C2)[C@@H]1C(=O)NCC1(C)CCC1,13,31
3.8,87,212 µL/min/mg,79.4,COc1cc(F)c(O[C@H]2CC[C@@](C)(c3noc(=O)[nH]3)CC2)cc1C(=O)N[C@@H]1[C@H]2CC[C@H](C2)[C@@H]1C(=O)NCC1(C)CCC1,12,
2.85,20,30 µL/min/mg,,COc1cc(C#N)c(O[C@H]2CC[C@@](C)(C(=O)O)CC2)cc1C(=O)N[C@@H]1[C@H]2CC[C@H](C2)[C@@H]1C(=O)NCC1(C)CCC1,5.5,10
3.5,38,54 µL/min/mg,,COc1cc(C)c(O[C@H]2CC[C@@](C)(C(=O)O)CC2)cc1C(=O)N[C@@H]1[C@H]2CC[C@H](C2)[C@@H]1C(=O)NCC1(C)CCC1,3.1,4.9
3.3,12.6,17 µL/min/mg,,CC1(CNC(=O)[C@H]2[C@@H]3CC[C@@H](C3)[C@H]2NC(=O)c2cc(O[C@H]3CC[C@@](C)(C(=O)O)CC3)c(F)cc2O)CCC1,58,105
3.4,33,50 µL/min/mg,,COc1cc(F)c(O[C@H]2CC[C@@](C)(C(=O)O)CC2)cc1C(=O)N[C@@H]1[C@H]2CC[C@H](C2)[C@@H]1C(=O)N[C@H](C)C(C)(C)C,5.9,11
4,44,83 µL/min/mg,,CCc1cc(OC)c(C(=O)N[C@@H]2[C@H]3CC[C@H](C3)[C@@H]2C(=O)NCC2(C)CCC2)cc1O[C@H]1CC[C@@](C)(C(=O)O)CC1,3.9,9.1

# Second part, the molecule before the results:
SMILES,logD [1],microsomal CLint at 1 µM [4] [µL/min/mg],CL free [5],EC50 (Relaxin receptor 1) [nM],hepatocyte CLint at 1 µM [2] [µL/min/1e6 cells],CL free [3] [µL/min]
CC1(CNC(=O)[C@H]2[C@@H]3CC[C@@H](C3)[C@H]2NC(=O)c2ccc(F)c(O[C@H]3CC[C@@](C)(C(=O)O)CC3)c2)CCC1,3,6.6,8.8 µL/min/mg,316,8.4,16
COc1cc(C2CC2)c(O[C@H]2CC[C@@](C)(C(=O)O)CC2)cc1C(=O)N[C@@H]1[C@H]2CC[C@H](C2)[C@@H]1C(=O)NCC1(C)CCC1,3.7,27,62 µL/min/mg,,5.3,13
COc1c(F)cc(O[C@H]2CC[C@@](C)(C(=O)O)CC2)cc1C(=O)N[C@@H]1[C@H]2CC[C@H](C2)[C@@H]1C(=O)NCC1(C)CCC1,3.3,44,73 µL/min/mg,,5.3,9.5
COCc1cc(OC)c(C(=O)N[C@@H]2[C@H]3CC[C@H](C3)[C@@H]2C(=O)NCC2(C)CCC2)cc1O[C@H]1CC[C@@](C)(C(=O)O)CC1,3,11,15 µL/min/mg,1000,3.2,44
COc1c(C)cc(O[C@H]2CC[C@@](C)(C(=O)O)CC2)cc1C(=O)N[C@@H]1[C@H]2CC[C@H](C2)[C@@H]1C(=O)NCC1(C)CCC1,2.9,7,10 µL/min/mg,,5.6,8.9
CC1(CNC(=O)[C@H]2[C@@H]3CC[C@@H](C3)[C@H]2NC(=O)c2cc(O[C@H]3CC[C@@](C)(C(=O)O)CC3)cc3c2OCC3)CCC1,2.9,25,30 µL/min/mg,,3.3,5.1
COc1cc(Cl)c(O[C@H]2CC[C@@](C)(C(=O)O)CC2)cc1C(=O)N[C@@H]1[C@H]2CC[C@H](C2)[C@@H]1C(=O)NCC1(C)CCC1,3.5,36,64 µL/min/mg,,4.8,14
CC1(CNC(=O)[C@H]2[C@@H]3CC[C@@H](C3)[C@H]2NC(=O)c2cc(O[C@H]3CC[C@@](C)(C(=O)O)CC3)c(F)cc2F)CCC1,2.9,37,49 µL/min/mg,,6.7,10
COc1cc(F)c(O[C@H]2CC[C@@](C)(C(=O)O)CC2)cc1C(=O)N[C@@H]1[C@H]2CC[C@H](C2)[C@@H]1C(=O)NCC(C)C,2.6,5.7,7.6 µL/min/mg,,< 1,< 1.4
CC1(CNC(=O)[C@H]2[C@@H]3CC[C@@H](C3)[C@H]2NC(=O)c2cc(O[C@H]3CC[C@@](C)(C(=O)O)CC3)c(F)cc2OC(F)F)CCC1,3.3,34,59 µL/min/mg,,26,52
COc1cc(F)c(O[C@H]2C[C@@](C)(C(=O)O)C2)cc1C(=O)N[C@@H]1[C@H]2CC[C@H](C2)[C@@H]1C(=O)NCC1(C)CCC1,2,7.6,10 µL/min/mg,,4.3,5.4
COc1cc(F)c(O[C@H]2CC[C@@](C)(c3n[nH]c(=O)o3)CC2)cc1C(=O)N[C@@H]1[C@H]2CC[C@H](C2)[C@@H]1C(=O)NCC1(C)CCC1,5.4,> 300,2.8 10^3uL/min/mg,,73,562
COc1cc(Cl)c(O[C@H]2CC[C@@](C)(C(=O)O)CC2)cc1C(=O)N[C@@H]1[C@@H]2CC[C@@H](C2)[C@@H]1C(=O)NCC1(C)CCC1,3.6,20,100 µL/min/mg,,49,153
COc1cc(S(C)(=O)=O)c(O[C@H]2CC[C@@](C)(C(=O)O)CC2)cc1C(=O)N[C@@H]1[C@H]2CC[C@H](C2)[C@@H]1C(=O)NCC1(C)CCC1,1.9,11,14 µL/min/mg,,1.2,1.7
COc1cc(F)c(O[C@H]2CC[C@@](C)(c3nnn[nH]3)CC2)cc1C(=O)N[C@@H]1[C@H]2CC[C@H](C2)[C@@H]1C(=O)NCC1(C)CCC1,2.8,15,29 µL/min/mg,,5.8,13
CC1(CNC(=O)[C@H]2[C@@H]3CC[C@@H](C3)[C@H]2N2CCc3cc(F)c(O[C@H]4CC[C@@](C)(C(=O)O)CC4)cc3C2=O)CCC1,,44,70 µL/min/mg,1580,2.1,3
COc1cc(C(F)F)c(O[C@H]2CC[C@@](C)(C(=O)O)CC2)cc1C(=O)N[C@@H]1[C@H]2CC[C@H](C2)[C@@H]1C(=O)NCC1(C)CCC1,3.8,23,39 µL/min/mg,,5.1,11
